Target: T1, mutant Mcl-1 R263A (Homo sapiens, UniProt Q07820, R263A)
T1 construct: human Mcl-1 (residues 171–323); His tag (pHis-TEV vector) (N); made in house; host or cells: E. coli Rosetta2 DE3
Assay: BLI-based direct binding assay
Details: compared with wild-type Mcl-1
Description: Mcl-1 and mutant Mcl-1 R263A proteins were biotinylated using the Thermo EZ-link Sulpho-NHS-LC-biotin biotinylation kit (cat. 21435). Protein and biotin were mixed in a 1:1 molar ratio in PBS on ice for 2 hours. The reaction mixture was dialyzed in PBS buffer to remove excess biotin. BLI experiments were performed using an OctetRED96 instrument from PALL/ForteBio. All experiments were performed at 30 °C using PBS (Gibco, #10010-23), and 0.005% Tween 20 as the assay buffer. Assays were conducted in 96-well, black, microplates (Greiner bio-one, #655209) containing the protein solutions for immobilization, pure assay buffer for dissociation, and serial dilutions of compounds in the presence of 5% DMSO to be tested. During the experiment, sample plates were continuously shaken at 1000 rpm. Biotinylated proteins were immobilized on Super Streptavidin (SSA) biosensors by dipping sensors into plate wells containing protein solutions. Biotinylated blocked Streptavidin sensors were used as control sensors prepared by the protocol provided from the manufacturer. Association (3 Minutes) and dissociation (3 Minutes) cycles of compounds were started by dipping sensors to compound wells with different tested concentrations as well as in pure buffer wells. Buffer-only reference was included in all assays. […]

T1 sequence (Q07820 171-323 R263A): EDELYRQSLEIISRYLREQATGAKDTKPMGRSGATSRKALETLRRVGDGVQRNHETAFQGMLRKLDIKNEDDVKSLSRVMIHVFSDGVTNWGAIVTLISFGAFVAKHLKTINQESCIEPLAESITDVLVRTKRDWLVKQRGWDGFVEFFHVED

## O=C(CSc1nnc(-c2ccco2)c(-c2ccco2)n1)Nc1ccccc1 [Compound 19]
  binding to mutant R263A Mcl-1 (BLI): no appreciable binding
